{"source": "patent US20090307791A1", "about": "“CALCIUM-ACTIVATED CHLORIDE CHANNEL AND METHODS OF USE THEREOF” (priority 2008, published 2009)", "key": {"CaCC": {"test_system": "CaCC", "assay": "Ca2+ evoked current in A23187 treated Xenopus oocytes", "type": "cell-based", "conditions": "Ca2+ 5 mM", "procedure": "(§1) For experiments involving TMEM16 constructs, capped cRNA was in vitro transcribed from linearized plasmids using the mMessage mMachine kit (Ambion). Female Axolotls and Xenopus laevis were purchased from the Ambystoma Genetic Stock Center and Nasco respectively. Oocytes from these animals were defoliculated by treatment with collagenase prepared as described. Usually 5 ng of cRNA (50 ng for mRNA) was injected into defolliculated oocytes. Oocytes were kept at 17° C. in ND96 solution (96 mM NaCl, 2 mM KCl, 1.8 mM CaCl2, 1 mM MgCl2, 10 mM HEPES [pH 7.4]). Two-electrode voltage-clamp measurements were performed at room temperature 2-4 days after injection using a GeneClamp500 amplifier (Axon Instruments) and pClamp 8.0 software (Axon Instruments). Oocytes used in photolysis experiments were injected with […] of 100 μM caged inositol trisphosphate [myo-inositol 1,4,5-trisphosphate, P4(5)-1-(2-nitrophenyl)ethyl ester] (Molecular Probes) at least 1 h before recording, and kept in dark until usage. For flash photolysis light derived from a mercury arc lamp was guided by a fused silica fiber (Oriel) to the top of oocytes in the recording chamber. Flash time was controlled via electronic shutter.\nFIGS. 2A-f. Carbachol and Ca^2+ evoked current responses in different oocytes. […]"}, "endogenous CaCCs": {"test_system": "endogenous CaCCs", "assay": "NFA inhibition of IP3-induced Ca2+ activated Cl- currents, two electrode voltage clamp, Xenopus oocytes", "type": "cell-based, Xenopus laevis", "procedure": "as §1\nCurrents were usually recorded in Ca^2+ free ND96 solution (96 mM NaCl, 2 mM KCl, 3 mM MgCl2, 10 mM HEPES [pH 7.4]). Solutions for Cl^−/gluconate replacement experiments were prepared from appropriate mixtures of solutions containing high Cl^− (95 mM NaCl, 1 mM KCl, 2 mM MgCl2, 10 mM HEPES [pH 7.4]) and solutions containing high gluconate (95 mM NaGluconate, 1 mM KCl, 2 mM MgCl2, 10 mM HEPES [pH 7.4]). In other permeability experiments solutions containing 90 NaX, 2 KCl, 4 MgCl, 10 mM HEPES [pH 7.4] with X=Cl^−, Br^−, I^− or SCN^− were used. […] The permeability ratios were calculated from shifts in reversal potential ΔErev using the Goldman-Hodgkin-Katz Equation in the form: PX/PCl=(γ·[Cl^−](1)−[Cl^−](2))/[X^−](2) were [Cl^−](1), [Cl^−](2) and [X^−](2) are the external Cl^− and X^− concentration before and after solution exchange. […]"}, "xTMEM16A": {"test_system": "xTMEM16A", "assay": "NFA inhibition of IP3-induced CaCC currents, two electrode voltage clamp, Axolotl oocytes injected with xTMEM16A cRNA", "type": "cell-based", "conditions": "Axolotl oocytes expressing xTMEM16A, 30 μM NFA, long lasting current", "procedure": "as §1, with “(Molecular Probes) at least 1 h before recording, and kept in dark until usage. For flash photolysis light derived from a mercury arc lamp was guided by a fused silica fiber (Oriel) to the top of oocytes in the recording chamber. Flash time was controlled via electronic shutter.” left out\nCurrents were usually recorded in Ca^2+ free ND96 solution (96 mM NaCl, 2 mM KCl, 3 mM MgCl2, 10 mM HEPES [pH 7.4]). […] The permeability ratios were calculated from shifts in reversal potential ΔErev using the Goldman-Hodgkin-Katz Equation in the form: PX/PCl=(γ·[Cl^−](1)−[Cl^−](2))/[X^−](2) were [Cl^−](1), [Cl^−](2) and [X^−](2) are the external Cl^− and X^− concentration before and after solution exchange. […]"}}}
{"molecule": "CNc1ccc2oc(C[C@H]3O[C@@]4(CC[C@H]3C)O[C@H]([C@H](C)C(=O)c3ccc[nH]3)[C@H](C)C[C@H]4C)nc2c1C(=O)O", "note": "[A23187]", "values": [{"measurement": "CaCC activation by A23187 then high calcium solution", "setting": "CaCC", "result": "resulted in CaCC activation"}]}
{"molecule": "O=C(O)c1cccnc1Nc1cccc(C(F)(F)F)c1", "note": "[NFA, niflumic acid]", "values": [{"measurement": "effect on decay of the residual CaCC current", "setting": "endogenous CaCCs; 30 μM NFA", "result": "slowed the decay of the residual current"}, {"measurement": "effect on IP3-induced CaCC current amplitude", "setting": "endogenous CaCCs; 30 μM NFA, 1 min perfusion, ND96", "result": "reduced the IP3-induced CaCC current"}, {"measurement": "reversibility after removal of NFA", "setting": "endogenous CaCCs; after 5 min ND96 wash", "result": "restored both the amplitude and the kinetics of the CaCC current"}, {"measurement": "effect on amplitude of a CaCC current of long duration", "setting": "xTMEM16A", "result": "barely reduced in amplitude"}]}
